This assay deals with T1, TLR7 (Homo sapiens, UniProt Q9NYK1).
T1 construct: Fresh blood was collected from normal human donors; endogenous in cells; host or cells: human PBMCs from fresh donor blood
T1 sequence (Q9NYK1 27-1049): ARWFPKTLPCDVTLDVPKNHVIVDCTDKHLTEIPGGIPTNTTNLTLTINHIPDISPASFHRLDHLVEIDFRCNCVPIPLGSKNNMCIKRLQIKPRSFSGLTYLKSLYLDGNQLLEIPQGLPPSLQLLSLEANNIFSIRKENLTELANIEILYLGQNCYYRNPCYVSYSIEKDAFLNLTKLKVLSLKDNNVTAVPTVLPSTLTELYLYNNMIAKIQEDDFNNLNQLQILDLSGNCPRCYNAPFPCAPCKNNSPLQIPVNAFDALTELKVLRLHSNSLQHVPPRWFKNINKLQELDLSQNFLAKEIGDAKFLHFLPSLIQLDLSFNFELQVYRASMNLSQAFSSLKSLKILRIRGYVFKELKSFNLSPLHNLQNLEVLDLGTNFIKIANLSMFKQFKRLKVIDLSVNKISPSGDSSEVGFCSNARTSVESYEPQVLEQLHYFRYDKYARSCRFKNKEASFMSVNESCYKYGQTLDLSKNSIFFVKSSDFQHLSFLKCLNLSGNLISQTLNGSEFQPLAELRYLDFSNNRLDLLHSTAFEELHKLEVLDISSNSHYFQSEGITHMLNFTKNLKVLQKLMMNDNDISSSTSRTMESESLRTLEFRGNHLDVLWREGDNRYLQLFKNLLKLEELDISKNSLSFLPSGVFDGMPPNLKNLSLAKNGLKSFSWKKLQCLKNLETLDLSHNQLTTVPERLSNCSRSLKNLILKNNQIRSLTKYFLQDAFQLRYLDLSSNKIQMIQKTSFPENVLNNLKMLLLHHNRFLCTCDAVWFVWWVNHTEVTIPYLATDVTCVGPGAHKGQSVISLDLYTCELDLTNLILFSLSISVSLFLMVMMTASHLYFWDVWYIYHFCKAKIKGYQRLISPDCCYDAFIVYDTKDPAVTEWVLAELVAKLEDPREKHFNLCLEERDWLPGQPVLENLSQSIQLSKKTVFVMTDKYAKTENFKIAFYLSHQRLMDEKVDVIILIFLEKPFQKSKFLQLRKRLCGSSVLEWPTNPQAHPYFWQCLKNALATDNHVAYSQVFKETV
Briefly: huPBMC TLR7 Antagonist IFNα Assay. It is filed as cell-based. As to conditions: human PBMCs stimulated with ssRNA40 10 μg/mL (DOTAP), 14-16 hrs; IFNα2b AlphaLISA read-out. An outline of the steps: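 Human PBMCs from fresh donor blood (150,000 cells/well) stimulated 14–16 h at 37 °C with DOTAP-complexed ssRNA40 (final 1 μg/ml for TLR8, 10 μg/mL for TLR7) or ODN2216 (final 0.3 μM, TLR9), 0.25% DMSO, ten-point 1/3 compound dilutions. Supernatant IL-6 read by HTRF (TLR8); IFNα by IFNα2b AlphaLISA (TLR7/TLR9).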
Background: Alpha assays give light when donor and acceptor beads are brought close together.

pIC50: −log10 of the molar value.

In the case of `Cc1cc(N2CCc3c(c(C)nn3CC34CCC(N5C[C@H](C)O[C@@H](C)C5)(CC3)CC4)C2)c2cnn(C)c2n1` [compound 111, (2S,6S)-4-(4-((5-(1,6-dimethyl-1H-pyrazolo[3,4-b]pyridin-4-yl)-3-methyl-4,5,6,7-tetrahydro-1H-pyrazolo[4,3-c]pyridin-1-yl)methyl)bicyclo[2.2.2]octan-1-yl)-2,6-dimethylmorpholine], the pIC50 is 7.55.
As for `Cc1cc(N2CCc3c(c(C)nn3CC34CCC(NCC5CCC5)(CC3)CO4)C2)c2cnn(C)c2n1` [compound 112, N-(cyclobutylmethyl)-1-((5-(1,6-dimethyl-1H-pyrazolo[3,4-b]pyridin-4-yl)-3-methyl-4,5,6,7-tetrahydro-1H-pyrazolo[4,3-c]pyridin-1-yl)methyl)-2-oxabicyclo[2.2.2]octan-4-amine], the figure is 7.62; as for `Cc1cc(N2CCc3c(c(C)nn3CC34CCC(N5C[C@@H](C)O[C@H](C)C5)(CC3)CC4)C2)c2cnn(C)c2n1` [compound 113, (2R,6R)-4-(4-((5-(1,6-dimethyl-1H-pyrazolo[3,4-b]pyridin-4-yl)-3-methyl-4,5,6,7-tetrahydro-1H-pyrazolo[4,3-c]pyridin-1-yl)methyl)bicyclo[2.2.2]octan-1-yl)-2,6-dimethylmorpholine], 7.28; as for `CCNCC(=O)NC12CCC(Cn3nc(C)c4c3CCN(c3cc(C)nc5c3cnn5C)C4)(CC1)CC2` [compound 114, N-(4-((5-(1,6-dimethyl-1H-pyrazolo[3,4-b]pyridin-4-yl)-3-methyl-4,5,6,7-tetrahydro-1H-pyrazolo[4,3-c]pyridin-1-yl)methyl)bicyclo[2.2.2]octan-1-yl)-2-(ethylamino)acetamide], 8.00.
As for `Cc1cc(N2CCc3c(c(C)nn3CC34CCC(NC(=O)CCN)(CC3)CC4)C2)c2cnn(C)c2n1` [compound 115, 3-amino-N-(4-((5-(1,6-dimethyl-1H-pyrazolo[3,4-b]pyridin-4-yl)-3-methyl-4,5,6,7-tetrahydro-1H-pyrazolo[4,3-c]pyridin-1-yl)methyl)bicyclo[2.2.2]octan-1-yl)propanamide], the figure is 8.00; as for `Cc1cc(N2CCc3c(c(C)nn3CC34CCC(N5CC6(COC6)C5)(CC3)CC4)C2)c2cnn(C)c2n1` [compound 116, 6-(4-((5-(1,6-dimethyl-1H-pyrazolo[3,4-b]pyridin-4-yl)-3-methyl-4,5,6,7-tetrahydro-1H-pyrazolo[4,3-c]pyridin-1-yl)methyl)bicyclo[2.2.2]octan-1-yl)-2-oxa-6-azaspiro[3.3]heptane], 8.05.
For `CN[C@H](C)C(=O)NC12CCC(Cn3nc(C)c4c3CCN(c3cc(C)nc5c3cnn5C)C4)(CC1)CC2` [compound 117, (R)-N-(4-((5-(1,6-dimethyl-1H-pyrazolo[3,4-b]pyridin-4-yl)-3-methyl-4,5,6,7-tetrahydro-1H-pyrazolo[4,3-c]pyridin-1-yl)methyl)bicyclo[2.2.2]octan-1-yl)-2-(methylamino)propanamide] the value was 8.70; for `CN[C@@H](C)C(=O)NC12CCC(Cn3nc(C)c4c3CCN(c3cc(C)nc5c3cnn5C)C4)(CC1)CC2` [compound 118], 8.70; for `CNCC(=O)NC12CCC(Cn3nc(C)c4c3CCN(c3cc(C)nc5c3cnn5C)C4)(CC1)CC2` [compound 121, N-(4-((5-(1,6-dimethyl-1H-pyrazolo[3,4-b]pyridin-4-yl)-3-methyl-4,5,6,7-tetrahydro-1H-pyrazolo[4,3-c]pyridin-1-yl)methyl)bicyclo[2.2.2]octan-1-yl)-2-(methylamino)acetamide], 8.30.
`Cc1cc(N2CCc3c(c(C)nn3CC34CCC(NCC(C)(C)O)(CC3)CC4)C2)c2cnn(C)c2n1` [compound 123, 1-((4-((5-(1,6-dimethyl-1H-pyrazolo[3,4-b]pyridin-4-yl)-3-methyl-4,5,6,7-tetrahydro-1H-pyrazolo[4,3-c]pyridin-1-yl)methyl)bicyclo[2.2.2]octan-1-yl)amino)-2-methylpropan-2-ol]: the pIC50 was 7.62.
In the case of `CCNCC(=O)NC12CCC(Cn3nc(C)c4c3CCN(c3cc(C)nc5cn[nH]c35)C4)(CC1)CC2` [compound 124, 2-(ethylamino)-N-(4-((3-methyl-5-(5-methyl-1H-pyrazolo[4,3-b]pyridin-7-yl)-4,5,6,7-tetrahydro-1H-pyrazolo[4,3-c]pyridin-1-yl)methyl)bicyclo[2.2.2]octan-1-yl)acetamide], the pIC50 is 5.98.
As for `Cc1cc(N2CCc3c(c(C)nn3CC34CCC(NC(=O)C5CNCCO5)(CC3)CC4)C2)c2cnn(C)c2n1` (stereo not drawn) [compound 125, N-(4-((5-(1,6-dimethyl-1H-pyrazolo[3,4-b]pyridin-4-yl)-3-methyl-4,5,6,7-tetrahydro-1H-pyrazolo[4,3-c]pyridin-1-yl)methyl)bicyclo[2.2.2]octan-1-yl)morpholine-2-carboxamide], the figure is 8.40; as for `CCNCCC(=O)NC12CCC(Cn3nc(C)c4c3CCN(c3cc(C)nc5c3cnn5C)C4)(CC1)CC2` [compound 126, N-(4-((5-(1,6-dimethyl-1H-pyrazolo[3,4-b]pyridin-4-yl)-3-methyl-4,5,6,7-tetrahydro-1H-pyrazolo[4,3-c]pyridin-1-yl)methyl)bicyclo[2.2.2]octan-1-yl)-3-(ethylamino)propanamide], 7.70.
For `CCNC12CCC(Cn3nc(C)c4c3CCN(c3ccnc(-c5ccccc5)c3)C4)(CC1)CC2` [compound 127, N-ethyl-4-((3-methyl-5-(2-phenylpyridin-4-yl)-4,5,6,7-tetrahydro-1H-pyrazolo[4,3-c]pyridin-1-yl)methyl)bicyclo[2.2.2]octan-1-amine] the value was 6.59; for `Cc1cc(N2CCc3c(c(C)nn3CC34CCC(N5CCOC[C@@H]5C)(CC3)CC4)C2)c2cnn(C)c2n1` [compound 128, (S)-4-(4-((5-(1,6-dimethyl-1H-pyrazolo[3,4-b]pyridin-4-yl)-3-methyl-4,5,6,7-tetrahydro-1H-pyrazolo[4,3-c]pyridin-1-yl)methyl)bicyclo[2.2.2]octan-1-yl)-3-methylmorpholine], 8.22.
With `Cc1cc(N2CCc3c(c(C)nn3CC34CCC(N5CCOC[C@H]5C)(CC3)CC4)C2)c2cnn(C)c2n1` [compound 129, (R)-4-(4-((5-(1,6-dimethyl-1H-pyrazolo[3,4-b]pyridin-4-yl)-3-methyl-4,5,6,7-tetrahydro-1H-pyrazolo[4,3-c]pyridin-1-yl)methyl)bicyclo[2.2.2]octan-1-yl)-3-methylmorpholine], the pIC50 is 8.10.
`COCCNC12CCC(Cn3nc(C)c4c3CCN(c3ccnc(-c5ccccc5)c3)C4)(CC1)CC2` [compound 130, N-(2-methoxyethyl)-4-((3-methyl-5-(2-phenylpyridin-4-yl)-4,5,6,7-tetrahydro-1H-pyrazolo[4,3-c]pyridin-1-yl)methyl)bicyclo[2.2.2]octan-1-amine]: the pIC50 is 5.88.
As for `Cc1cc(N2CCc3c(c(C)nn3CC34CCC(NC(=O)C5CNC5)(CC3)CC4)C2)c2cnn(C)c2n1` [compound 131, N-(4-((5-(1,6-dimethyl-1H-pyrazolo[3,4-b]pyridin-4-yl)-3-methyl-4,5,6,7-tetrahydro-1H-pyrazolo[4,3-c]pyridin-1-yl)methyl)bicyclo[2.2.2]octan-1-yl)azetidine-3-carboxamide], the negative-log IC50 (pIC50) is 8.52.

The term pIC50 denotes the IC50 on a negative log10 scale, so that one unit is a factor of ten.

The record behind these values is patent publication US20240376099A1, “COMPOUNDS AND COMPOSITIONS AS INHIBITORS OF ENDOSOMAL TOLL-LIKE RECEPTORS” (Novartis AG, priority 2016, published 2024).
